# Experimental data: ChEMBL document CHEMBL1909046, “DrugMatrix in vitro pharmacology data”
# Molecular target: Cytochrome P450 3A4 (Homo sapiens, UniProt P08684); note: in other assays of this panel Not Active means under 50% inhibition at 10 µM
# Conditions: bti-tn-5b1-4
# Chain of Cytochrome P450 3A4 (P08684 whole entry): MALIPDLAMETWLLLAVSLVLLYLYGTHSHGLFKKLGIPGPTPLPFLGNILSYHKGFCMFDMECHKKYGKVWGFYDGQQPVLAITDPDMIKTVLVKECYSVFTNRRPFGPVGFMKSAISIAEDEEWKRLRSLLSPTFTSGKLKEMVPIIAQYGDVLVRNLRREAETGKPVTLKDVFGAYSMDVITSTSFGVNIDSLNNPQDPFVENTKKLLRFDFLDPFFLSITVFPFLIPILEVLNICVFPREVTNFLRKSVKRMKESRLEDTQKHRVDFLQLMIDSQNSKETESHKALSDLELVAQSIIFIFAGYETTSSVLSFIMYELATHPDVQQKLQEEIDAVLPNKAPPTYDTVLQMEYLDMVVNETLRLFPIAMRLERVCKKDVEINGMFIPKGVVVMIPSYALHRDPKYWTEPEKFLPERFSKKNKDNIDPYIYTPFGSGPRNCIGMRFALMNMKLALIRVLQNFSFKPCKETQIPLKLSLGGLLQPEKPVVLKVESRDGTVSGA
SMILES,IC50,Ki
NC(=O)NC(=O)Cc1ccccc1 [PHENACEMIDE],Not Active,Not Active
NC(=O)CN1CCCC1=O,Not Active,Not Active
CC(C)Cn1cnc2c(N)nc3ccccc3c21 [IMIQUIMOD],Not Active,Not Active
CCO [ALCOHOL],Not Active,Not Active
C[C@H](C(=O)O)c1ccc2oc(-c3ccc(F)cc3)nc2c1 [FLUNOXAPROFEN],Not Active,Not Active
O=C(O)c1ccccc1 [BENZOIC ACID],Not Active,Not Active
CN(CCOc1ccc(C[C@H](Nc2ccccc2C(=O)c2ccccc2)C(=O)O)cc1)c1ccccn1,Not Active,Not Active
O=c1[nH]cnc2c1ncn2[C@H]1CC[C@@H](CO)O1 [DIDANOSINE],Not Active,Not Active
CC(C)(c1ccc(O)cc1)c1ccc(O)cc1 [BISPHENOL A],Not Active,Not Active
ClC1=C(Cl)[C@]2(Cl)[C@@H]3[C@@H]4C[C@@H]([C@H]5O[C@@H]45)[C@@H]3[C@@]1(Cl)C2(Cl)Cl [DIELDRIN],Not Active,Not Active
c1ccc(Cn2ccnc2)cc1,Not Active,Not Active
C[C@]12CC[C@@H](O)C[C@@H]1CC[C@@H]1[C@@H]2CC[C@]2(C)C(=O)CC[C@@H]12 [ANDROSTERONE],Not Active,Not Active
CC12CCC(CC1)C(C)(C)O2 [EUCALYPTOL],Not Active,Not Active

# Molecular target: Sodium-dependent noradrenaline transporter (Homo sapiens, UniProt P23975)
# Assay: DRUGMATRIX: Norepinephrine Transporter radioligand binding (ligand: [125I] RTI-55)
# Assay type: cell membranes, MDCK, Membrane
# Conditions: Not Active = under 50% inhibition at 10 µM; read-out: IC50
# Chain of Sodium-dependent noradrenaline transporter (P23975 whole entry): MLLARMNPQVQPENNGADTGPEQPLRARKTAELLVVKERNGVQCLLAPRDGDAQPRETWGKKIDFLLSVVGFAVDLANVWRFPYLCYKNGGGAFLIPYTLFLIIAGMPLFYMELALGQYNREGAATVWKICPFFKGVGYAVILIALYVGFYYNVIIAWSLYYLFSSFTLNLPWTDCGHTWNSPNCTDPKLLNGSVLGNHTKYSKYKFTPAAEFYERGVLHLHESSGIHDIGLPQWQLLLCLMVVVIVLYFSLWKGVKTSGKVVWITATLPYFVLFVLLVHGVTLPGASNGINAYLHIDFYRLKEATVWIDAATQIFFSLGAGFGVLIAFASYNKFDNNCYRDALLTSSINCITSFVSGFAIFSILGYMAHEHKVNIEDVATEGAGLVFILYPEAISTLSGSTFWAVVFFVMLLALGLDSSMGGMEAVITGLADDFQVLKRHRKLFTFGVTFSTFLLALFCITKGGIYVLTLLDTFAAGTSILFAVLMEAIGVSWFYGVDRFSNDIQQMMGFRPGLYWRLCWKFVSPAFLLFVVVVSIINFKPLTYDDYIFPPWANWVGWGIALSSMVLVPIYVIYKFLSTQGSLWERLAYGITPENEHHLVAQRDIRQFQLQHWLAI
row,SMILES,IC50 [µM]
1,CN(CCOc1ccc(C[C@H](Nc2ccccc2C(=O)c2ccccc2)C(=O)O)cc1)c1ccccn1,40.3
2,CC(C)(c1ccc(O)cc1)c1ccc(O)cc1 [BISPHENOL A],16.6

# Same assay, conditions: Not Active = under 50% inhibition at 10 µM; read-out: Ki
row,SMILES,Ki [µM]
1,CN(CCOc1ccc(C[C@H](Nc2ccccc2C(=O)c2ccccc2)C(=O)O)cc1)c1ccccn1,40
2,CC(C)(c1ccc(O)cc1)c1ccc(O)cc1 [BISPHENOL A],16.5

# Same assay, conditions: mdck; Not Active = under 50% inhibition at 10 µM
row,SMILES,IC50
1,NC(=O)NC(=O)Cc1ccccc1 [PHENACEMIDE],Not Active
2,NC(=O)CN1CCCC1=O,Not Active
3,CC(C)Cn1cnc2c(N)nc3ccccc3c21 [IMIQUIMOD],Not Active
4,CCO [ALCOHOL],Not Active
5,C[C@H](C(=O)O)c1ccc2oc(-c3ccc(F)cc3)nc2c1 [FLUNOXAPROFEN],Not Active
6,O=C(O)c1ccccc1 [BENZOIC ACID],Not Active
7,O=c1[nH]cnc2c1ncn2[C@H]1CC[C@@H](CO)O1 [DIDANOSINE],Not Active
8,ClC1=C(Cl)[C@]2(Cl)[C@@H]3[C@@H]4C[C@@H]([C@H]5O[C@@H]45)[C@@H]3[C@@]1(Cl)C2(Cl)Cl [DIELDRIN],Not Active
9,c1ccc(Cn2ccnc2)cc1,Not Active
10,C[C@]12CC[C@@H](O)C[C@@H]1CC[C@@H]1[C@@H]2CC[C@]2(C)C(=O)CC[C@@H]12 [ANDROSTERONE],Not Active
11,CC12CCC(CC1)C(C)(C)O2 [EUCALYPTOL],Not Active

# Molecular target: Vasopressin V1a receptor (Homo sapiens, UniProt P37288); note: in other assays of this panel Not Active means under 50% inhibition at 10 µM
# Assay type: cell membranes, Membrane
# Conditions: hek293
# Chain of Vasopressin V1a receptor (P37288 whole entry): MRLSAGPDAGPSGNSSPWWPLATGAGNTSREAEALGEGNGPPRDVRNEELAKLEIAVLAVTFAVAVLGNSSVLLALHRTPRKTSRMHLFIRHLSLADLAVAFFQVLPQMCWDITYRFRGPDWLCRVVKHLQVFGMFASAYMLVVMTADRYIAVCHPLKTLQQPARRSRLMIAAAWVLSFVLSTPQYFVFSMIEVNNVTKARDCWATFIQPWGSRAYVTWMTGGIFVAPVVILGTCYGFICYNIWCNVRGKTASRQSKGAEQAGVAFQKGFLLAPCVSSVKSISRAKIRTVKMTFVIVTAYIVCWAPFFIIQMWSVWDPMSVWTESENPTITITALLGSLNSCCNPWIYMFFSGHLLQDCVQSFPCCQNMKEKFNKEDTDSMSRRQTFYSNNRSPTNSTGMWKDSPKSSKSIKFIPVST
row,SMILES,IC50
1,NC(=O)NC(=O)Cc1ccccc1 [PHENACEMIDE],Not Active
2,NC(=O)CN1CCCC1=O,Not Active
3,CC(C)Cn1cnc2c(N)nc3ccccc3c21 [IMIQUIMOD],Not Active
4,CCO [ALCOHOL],Not Active
5,C[C@H](C(=O)O)c1ccc2oc(-c3ccc(F)cc3)nc2c1 [FLUNOXAPROFEN],Not Active
6,O=C(O)c1ccccc1 [BENZOIC ACID],Not Active
7,CN(CCOc1ccc(C[C@H](Nc2ccccc2C(=O)c2ccccc2)C(=O)O)cc1)c1ccccn1,Not Active
8,O=c1[nH]cnc2c1ncn2[C@H]1CC[C@@H](CO)O1 [DIDANOSINE],Not Active
9,CC(C)(c1ccc(O)cc1)c1ccc(O)cc1 [BISPHENOL A],Not Active
10,ClC1=C(Cl)[C@]2(Cl)[C@@H]3[C@@H]4C[C@@H]([C@H]5O[C@@H]45)[C@@H]3[C@@]1(Cl)C2(Cl)Cl [DIELDRIN],Not Active
11,c1ccc(Cn2ccnc2)cc1,Not Active
12,C[C@]12CC[C@@H](O)C[C@@H]1CC[C@@H]1[C@@H]2CC[C@]2(C)C(=O)CC[C@@H]12 [ANDROSTERONE],Not Active
13,CC12CCC(CC1)C(C)(C)O2 [EUCALYPTOL],Not Active

# Molecular target: T1, Adenosine receptor A3 (Homo sapiens, UniProt P0DMS8);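 note: radioligand binding assay with AB-MECA serving as the labeled ligand; in other assays of this panel Not Active means under 50% inhibition at 10 µM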
# T1 sequence (P0DMS8 whole entry): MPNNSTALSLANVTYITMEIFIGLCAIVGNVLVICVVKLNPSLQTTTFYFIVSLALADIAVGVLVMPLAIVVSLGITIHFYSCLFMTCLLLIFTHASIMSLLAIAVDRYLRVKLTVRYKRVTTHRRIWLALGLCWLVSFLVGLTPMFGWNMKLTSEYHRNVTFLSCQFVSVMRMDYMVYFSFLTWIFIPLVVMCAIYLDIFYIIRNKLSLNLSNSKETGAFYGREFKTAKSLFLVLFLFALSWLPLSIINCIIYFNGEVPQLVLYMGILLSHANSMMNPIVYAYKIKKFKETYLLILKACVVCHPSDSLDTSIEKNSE
# Assay type: cell membranes, CHO-K1, Membrane
# Conditions: cho-k1
row,SMILES,IC50
1,NC(=O)NC(=O)Cc1ccccc1 [PHENACEMIDE],Not Active
2,NC(=O)CN1CCCC1=O,Not Active
3,CC(C)Cn1cnc2c(N)nc3ccccc3c21 [IMIQUIMOD],Not Active
4,CCO [ALCOHOL],Not Active
5,C[C@H](C(=O)O)c1ccc2oc(-c3ccc(F)cc3)nc2c1 [FLUNOXAPROFEN],Not Active
6,O=C(O)c1ccccc1 [BENZOIC ACID],Not Active
7,O=c1[nH]cnc2c1ncn2[C@H]1CC[C@@H](CO)O1 [DIDANOSINE],Not Active
8,CC(C)(c1ccc(O)cc1)c1ccc(O)cc1 [BISPHENOL A],Not Active
9,ClC1=C(Cl)[C@]2(Cl)[C@@H]3[C@@H]4C[C@@H]([C@H]5O[C@@H]45)[C@@H]3[C@@]1(Cl)C2(Cl)Cl [DIELDRIN],Not Active
10,c1ccc(Cn2ccnc2)cc1,Not Active
11,C[C@]12CC[C@@H](O)C[C@@H]1CC[C@@H]1[C@@H]2CC[C@]2(C)C(=O)CC[C@@H]12 [ANDROSTERONE],Not Active
12,CC12CCC(CC1)C(C)(C)O2 [EUCALYPTOL],Not Active

# Same assay, conditions: read-out: IC50
row,SMILES,IC50 [µM]
1,CN(CCOc1ccc(C[C@H](Nc2ccccc2C(=O)c2ccccc2)C(=O)O)cc1)c1ccccn1,14.3

# Same assay, conditions: read-out: Ki
row,SMILES,Ki [µM]
1,CN(CCOc1ccc(C[C@H](Nc2ccccc2C(=O)c2ccccc2)C(=O)O)cc1)c1ccccn1,8.09

# Test system: not listed separately
# Assay: DRUGMATRIX: Imidazoline I2, Central radioligand binding (ligand: [3H] Idazoxan)
# Assay type: cell membranes, Rattus norvegicus, Wistar, Cerebral cortex, Membrane
# Conditions: Not Active = under 50% inhibition at 10 µM
SMILES,IC50,Ki
NC(=O)NC(=O)Cc1ccccc1 [PHENACEMIDE],Not Active,Not Active
NC(=O)CN1CCCC1=O,Not Active,Not Active
CC(C)Cn1cnc2c(N)nc3ccccc3c21 [IMIQUIMOD],Not Active,Not Active
CCO [ALCOHOL],Not Active,Not Active
C[C@H](C(=O)O)c1ccc2oc(-c3ccc(F)cc3)nc2c1 [FLUNOXAPROFEN],Not Active,Not Active
O=C(O)c1ccccc1 [BENZOIC ACID],Not Active,Not Active
CN(CCOc1ccc(C[C@H](Nc2ccccc2C(=O)c2ccccc2)C(=O)O)cc1)c1ccccn1,Not Active,Not Active
O=c1[nH]cnc2c1ncn2[C@H]1CC[C@@H](CO)O1 [DIDANOSINE],Not Active,Not Active
CC(C)(c1ccc(O)cc1)c1ccc(O)cc1 [BISPHENOL A],Not Active,Not Active
ClC1=C(Cl)[C@]2(Cl)[C@@H]3[C@@H]4C[C@@H]([C@H]5O[C@@H]45)[C@@H]3[C@@]1(Cl)C2(Cl)Cl [DIELDRIN],Not Active,Not Active
c1ccc(Cn2ccnc2)cc1,Not Active,Not Active
C[C@]12CC[C@@H](O)C[C@@H]1CC[C@@H]1[C@@H]2CC[C@]2(C)C(=O)CC[C@@H]12 [ANDROSTERONE],Not Active,Not Active
CC12CCC(CC1)C(C)(C)O2 [EUCALYPTOL],Not Active,Not Active

# Molecular target: Voltage-gated inwardly rectifying potassium channel KCNH2 (Homo sapiens, UniProt Q12809); note: in other assays of this panel Not Active means under 50% inhibition at 10 µM
# Conditions: hek293
# Chain of Voltage-gated inwardly rectifying potassium channel KCNH2 (Q12809 whole entry): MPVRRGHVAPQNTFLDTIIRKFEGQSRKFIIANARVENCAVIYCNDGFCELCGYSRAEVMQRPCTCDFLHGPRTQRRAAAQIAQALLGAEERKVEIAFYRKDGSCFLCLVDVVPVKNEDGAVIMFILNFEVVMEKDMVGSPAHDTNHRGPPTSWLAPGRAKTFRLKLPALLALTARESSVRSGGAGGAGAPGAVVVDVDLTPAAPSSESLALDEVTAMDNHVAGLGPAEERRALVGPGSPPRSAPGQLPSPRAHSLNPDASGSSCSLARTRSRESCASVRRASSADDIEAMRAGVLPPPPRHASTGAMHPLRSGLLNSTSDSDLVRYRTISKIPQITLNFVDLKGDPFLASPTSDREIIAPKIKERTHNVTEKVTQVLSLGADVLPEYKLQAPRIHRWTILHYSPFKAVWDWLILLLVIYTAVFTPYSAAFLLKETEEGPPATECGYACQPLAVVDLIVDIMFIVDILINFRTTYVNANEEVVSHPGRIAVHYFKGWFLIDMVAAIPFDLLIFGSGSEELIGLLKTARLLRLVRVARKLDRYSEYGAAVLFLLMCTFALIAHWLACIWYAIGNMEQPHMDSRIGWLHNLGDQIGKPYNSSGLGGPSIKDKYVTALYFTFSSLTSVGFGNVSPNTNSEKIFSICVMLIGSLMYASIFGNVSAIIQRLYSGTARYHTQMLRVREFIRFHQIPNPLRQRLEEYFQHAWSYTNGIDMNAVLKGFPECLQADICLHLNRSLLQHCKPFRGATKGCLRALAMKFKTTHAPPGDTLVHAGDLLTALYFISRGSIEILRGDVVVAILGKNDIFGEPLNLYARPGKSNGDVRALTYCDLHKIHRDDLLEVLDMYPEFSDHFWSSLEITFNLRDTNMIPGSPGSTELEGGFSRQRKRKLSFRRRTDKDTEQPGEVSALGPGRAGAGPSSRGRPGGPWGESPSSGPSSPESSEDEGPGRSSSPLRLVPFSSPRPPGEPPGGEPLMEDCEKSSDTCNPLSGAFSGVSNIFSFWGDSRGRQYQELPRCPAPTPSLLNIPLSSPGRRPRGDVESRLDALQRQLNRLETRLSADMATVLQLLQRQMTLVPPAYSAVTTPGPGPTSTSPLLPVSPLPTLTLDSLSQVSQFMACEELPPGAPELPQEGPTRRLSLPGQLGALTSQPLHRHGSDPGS
SMILES,IC50,Ki
NC(=O)NC(=O)Cc1ccccc1 [PHENACEMIDE],Not Active,Not Active
NC(=O)CN1CCCC1=O,Not Active,Not Active
CC(C)Cn1cnc2c(N)nc3ccccc3c21 [IMIQUIMOD],Not Active,Not Active
CCO [ALCOHOL],Not Active,Not Active
C[C@H](C(=O)O)c1ccc2oc(-c3ccc(F)cc3)nc2c1 [FLUNOXAPROFEN],Not Active,Not Active
O=C(O)c1ccccc1 [BENZOIC ACID],Not Active,Not Active
CN(CCOc1ccc(C[C@H](Nc2ccccc2C(=O)c2ccccc2)C(=O)O)cc1)c1ccccn1,Not Active,Not Active
O=c1[nH]cnc2c1ncn2[C@H]1CC[C@@H](CO)O1 [DIDANOSINE],Not Active,Not Active
CC(C)(c1ccc(O)cc1)c1ccc(O)cc1 [BISPHENOL A],Not Active,Not Active
ClC1=C(Cl)[C@]2(Cl)[C@@H]3[C@@H]4C[C@@H]([C@H]5O[C@@H]45)[C@@H]3[C@@]1(Cl)C2(Cl)Cl [DIELDRIN],Not Active,Not Active
c1ccc(Cn2ccnc2)cc1,Not Active,Not Active
C[C@]12CC[C@@H](O)C[C@@H]1CC[C@@H]1[C@@H]2CC[C@]2(C)C(=O)CC[C@@H]12 [ANDROSTERONE],Not Active,Not Active
CC12CCC(CC1)C(C)(C)O2 [EUCALYPTOL],Not Active,Not Active

# Test system: not listed separately
# Assay: DRUGMATRIX: Phorbol Ester radioligand binding (ligand: [3H] PDBu)
# Assay type: cell membranes, Mus musculus, ICR, Brain, Membrane
# Conditions: Not Active = under 50% inhibition at 10 µM
SMILES,IC50,Ki
NC(=O)NC(=O)Cc1ccccc1 [PHENACEMIDE],Not Active,Not Active
NC(=O)CN1CCCC1=O,Not Active,Not Active
CC(C)Cn1cnc2c(N)nc3ccccc3c21 [IMIQUIMOD],Not Active,Not Active
CCO [ALCOHOL],Not Active,Not Active
C[C@H](C(=O)O)c1ccc2oc(-c3ccc(F)cc3)nc2c1 [FLUNOXAPROFEN],Not Active,Not Active
O=C(O)c1ccccc1 [BENZOIC ACID],Not Active,Not Active
CN(CCOc1ccc(C[C@H](Nc2ccccc2C(=O)c2ccccc2)C(=O)O)cc1)c1ccccn1,Not Active,Not Active
O=c1[nH]cnc2c1ncn2[C@H]1CC[C@@H](CO)O1 [DIDANOSINE],Not Active,Not Active
CC(C)(c1ccc(O)cc1)c1ccc(O)cc1 [BISPHENOL A],Not Active,Not Active
ClC1=C(Cl)[C@]2(Cl)[C@@H]3[C@@H]4C[C@@H]([C@H]5O[C@@H]45)[C@@H]3[C@@]1(Cl)C2(Cl)Cl [DIELDRIN],Not Active,Not Active
c1ccc(Cn2ccnc2)cc1,Not Active,Not Active
C[C@]12CC[C@@H](O)C[C@@H]1CC[C@@H]1[C@@H]2CC[C@]2(C)C(=O)CC[C@@H]12 [ANDROSTERONE],Not Active,Not Active
CC12CCC(CC1)C(C)(C)O2 [EUCALYPTOL],Not Active,Not Active
